The text below walks through data of ChEMBL document CHEMBL1201862, “PubChem BioAssay data set” (2004).

Among the test systems are HOP-18; M19-MEL; XF498; RXF 631; KM-20L2; LXFL 529; DU-145; MDA-MB-435; T47D.
Common to all, as to assay: NCI-60 cell line screen, 48 h

The structures appear in SMILES notation.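 Briefly, cells in 96-well plates were exposed to five compound concentrations for 48 h, and endpoints were estimated by linear interpolation. GI50 is the concentration that inhibits growth by half.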 The source made the active and inactive calls. No stated cut-off is given here; in the data, active = GI50 up to about 1.1 µM and inactive = higher.

As for `O=[N+]([O-])c1ccc(/C=C/c2ccc(/N=N/c3ccc(/C=C/c4ccc([N+](=O)[O-])cc4S(=O)(=O)O)c(S(=O)(=O)O)c3)cc2S(=O)(=O)O)c(S(=O)(=O)O)c1`, the GI50 in the assay on HOP-18 is > 74.6 µM (inactive); with M19-MEL, > 100 µM (inactive); in the assay on XF498, > 78 µM (inactive).
Regarding `CC(C)(C)c1ccc(OCCOCCOc2ccc(C(C)(C)C)cc2S(N)(=O)=O)c(S(N)(=O)=O)c1`, the GI50 in the assay with HOP-18, in the assay with M19-MEL and in the assay on RXF 631 was > 100 µM (inactive) throughout.
As for `Cc1ccc(NC(=O)SCCC(=O)O)cc1`, the GI50 in the assay on KM-20L2, in the assay with LXFL 529 and with RXF 631 was > 100 µM (inactive) throughout.
With `O=C(c1ccccc1)c1nnn(Cc2cccc(Cl)c2)c1C(=O)c1ccccc1`, the GI50 in the assay on HOP-18 was > 100 µM (inactive); in the assay with KM-20L2 it was > 100 µM (inactive); with LXFL 529 it was 97.5 µM (inactive); with M19-MEL, > 100 µM (inactive); in the assay with XF498, > 100 µM (inactive).
With `C/C(=N\NC(=O)C(N)=O)c1c(O)cc(C)oc1=O`, the GI50 with KM-20L2, in the assay on LXFL 529, in the assay on M19-MEL and in the assay on RXF 631 was > 100 µM (inactive) in each case.
In the case of `CCSC(=O)N1c2ccc(OC)cc2C=CC1C#N` (stereo not drawn), the GI50 in the assay on DU-145 was 0.00168 µM (active); in the assay on KM-20L2, < 0.01 µM (active); in the assay on LXFL 529, < 0.01 µM (active); in the assay with M19-MEL, < 0.01 µM (active); with MDA-MB-435 it was 0.00292 µM (active); in the assay with T47D it was 228 µM (inactive). For the same molecule, the GI50 in the assay with XF498 is < 0.01 µM (active).
Turning to `O=[N+]([O-])c1ccc(-c2ccc(-c3csc(Nc4ccccn4)n3)o2)cc1`, the GI50 in the assay on KM-20L2 was > 100 µM (inactive); in the assay on LXFL 529, 25.1 µM (inactive); with M19-MEL it was 58.6 µM (inactive); in the assay with RXF 631 it was 35.4 µM (inactive); in the assay on XF498 it was 22.7 µM (inactive).
For the molecule `Nc1ccc(Cn2ccc3c4c(N)nc(N)nc4ccc32)cc1`, the GI50 with DU-145 is 0.0123 µM (active); in the assay with HOP-18, 10.2 µM (inactive); with KM-20L2, < 0.01 µM (active); in the assay with LXFL 529, 0.0119 µM (active); in the assay on M19-MEL, 0.0834 µM (active); with MDA-MB-435, < 0.01 µM (active). The GI50 with T47D was 0.818 µM (active); in the assay with XF498, 1.5 µM (inactive).
With `Nc1nc2[nH]c(=O)cnc2c(=O)[nH]1` [ISOXANTHOPTERIN], the GI50 is > 5.81 µM (inactive) in the assay with HOP-18, > 72.4 µM (inactive) in the assay with KM-20L2, > 85.1 µM (inactive) in the assay with M19-MEL and 10.6 µM (inactive) with XF498.
Regarding `C/C(CC(=O)Nc1cc(Cl)c(Cl)cc1Cl)=N\NC(N)=O`, the GI50 in the assay on KM-20L2, with LXFL 529, in the assay on M19-MEL, in the assay with RXF 631 and with XF498 was > 100 µM (inactive) throughout.
Take `CC(=O)NC1C(OCc2ccccc2)OC(CO)C(O)C1OC(C)C(=O)N[C@@H](C)C(=O)N[C@H](CCC(=O)OCCNc1c2ccccc2nc2cccc([N+](=O)[O-])c12)C(N)=O` (stereo partly drawn): the GI50 was 0.000354 µM (active) in the assay on HOP-18, 0.000175 µM (active) in the assay with KM-20L2 and 0.000622 µM (active) with LXFL 529.
As for `O=NN1C(c2ccccc2)C2CCCC(C2=O)C1c1ccccc1` (stereo not drawn), the GI50 was 8.73 µM (inactive) with HOP-18, 16 µM (inactive) in the assay with KM-20L2, 18.9 µM (inactive) in the assay with M19-MEL and 13.6 µM (inactive) with XF498.
Regarding `CSc1nc2c(ncn2C2OC(CO)C(O)C(O)C2O)c(=O)n1C` (stereo not drawn), the GI50 in the assay on HOP-18 was > 88.9 µM (inactive); in the assay with KM-20L2, > 100 µM (inactive); in the assay on M19-MEL, > 100 µM (inactive); in the assay with XF498, > 100 µM (inactive).
Regarding `O=c1n(C2CCCCC2)c(=C(Cl)Cl)c(=C(Cl)Cl)n1C1CCCCC1`, the GI50 in the assay on HOP-18, with KM-20L2, in the assay with M19-MEL and in the assay with XF498 was > 100 µM (inactive) throughout.
With `CC(=O)NNc1nc(C)c(C(=O)/C=C/c2cccc([N+](=O)[O-])c2)s1`, the GI50 in the assay on HOP-18, in the assay with KM-20L2, in the assay on LXFL 529, in the assay with M19-MEL and in the assay with RXF 631 was > 100 µM (inactive) each time.
Regarding `Cc1c(N)nc(C2CC(=O)N2CC(N)C(N)=O)nc1C(=O)NC(C(=O)NC(C)C(O)C(C)C(=O)NC(C(=O)NCCc1nc(-c2nc(C(=O)NCCNCC(C)O)cs2)cs1)C(C)O)C(OC1OC(CO)C(O)C(O)C1OC1OC(CO)C(O)C(OC(N)=O)C1O)c1c[nH]cn1` (stereo not drawn), the GI50 is 7.87 µM (inactive) in the assay on DU-145; 13.4 µM (inactive) with HOP-18; 58.6 µM (inactive) in the assay on KM-20L2; > 38 µM (inactive) in the assay on LXFL 529; 5.04 µM (inactive) in the assay on M19-MEL; 3.1 µM (inactive) with MDA-MB-435. Besides, the GI50 in the assay on T47D is > 5 µM (inactive); in the assay with XF498 it was 1.35 µM (inactive).
Regarding `CCOC(=O)NC(=O)c1cn(CCCCCCOC(=O)NCCCCCCNC(=O)OCCCCCCn2cc(C(=O)NC(=O)OCC)c(=O)[nH]c2=O)c(=O)[nH]c1=O`, the GI50 in the assay with HOP-18, in the assay on KM-20L2, with LXFL 529, in the assay with M19-MEL and in the assay on RXF 631 was > 100 µM (inactive) in each case.
As for `O=CN/C=C/c1ccccc1O`, the GI50 in the assay on DU-145, in the assay on HOP-18, in the assay with KM-20L2, in the assay on LXFL 529 and in the assay with M19-MEL was > 100 µM (inactive) in each case.
`O=C1CS(=O)(=O)C(c2cccc(Oc3ccccc3)c2)N1c1ccccc1` (stereo not drawn): the results for the GI50 with DU-145, in the assay on MDA-MB-435 and in the assay with T47D were 48 µM (inactive), 27.4 µM (inactive) and 15.3 µM (inactive), respectively.
Turning to `CCN1C(=O)N2C(OC)c3ccccc3C(Br)C2(OC)C1=O` (stereo not drawn), the GI50 with KM-20L2, in the assay with LXFL 529, in the assay on M19-MEL and in the assay with RXF 631 was > 100 µM (inactive) throughout.
In the case of `C#Cc1ccccc1C(=O)OC`, the GI50 with HOP-18, with KM-20L2 and in the assay with XF498 was > 100 µM (inactive) each time.
For `CC1CCC2(CC1)NN=c1s/c(=C\c3ccc(O)cc3)c(=O)n1N2` (stereo not drawn), the GI50 with HOP-18, in the assay on KM-20L2, in the assay with LXFL 529, in the assay on M19-MEL and in the assay with XF498 was > 100 µM (inactive) each time.
For `COc1cc2c3c(cc(Cl)nc3c1OC)C(=O)C(=O)N2`, the GI50 in the assay with DU-145 is 17 µM (inactive); with MDA-MB-435, 1.79 µM (inactive); in the assay with T47D, 3.68 µM (inactive).
For `Cn1c2ccccc2n2c(=O)c3cc([N+](=O)[O-])ccc3c(C#N)c12`, the GI50 with DU-145, in the assay on MDA-MB-435 and in the assay with T47D was > 100 µM (inactive) each time.
As to `COC(=O)C1=C(\O)C[C@@]2(C)CC[C@@H](C(=O)OC)C2C/C=C\1C(=O)OC` (stereo partly drawn), the GI50 was > 100 µM (inactive) in the assay on HOP-18; > 100 µM (inactive) in the assay with KM-20L2; 62.2 µM (inactive) in the assay with LXFL 529; > 100 µM (inactive) with M19-MEL; > 100 µM (inactive) in the assay on RXF 631.
For the molecule `CC12CCCC(C#N)(C1)OC2=O` (stereo not drawn), the GI50 in the assay with KM-20L2, in the assay on LXFL 529, with M19-MEL, with RXF 631 and in the assay on XF498 was > 100 µM (inactive) in each case.
For `COc1ccccc1CNCc1nc2ccccc2[nH]1`, the GI50 in the assay with DU-145, with MDA-MB-435 and with T47D was > 100 µM (inactive) in each case.
As for `Cn1c(=O)c2c(nc3n2C(CCl)CO3)n(C)c1=O` (stereo not drawn), the GI50 with HOP-18, with M19-MEL and in the assay on RXF 631 was > 100 µM (inactive) throughout.
Regarding `CCOC(=O)C1=C(O)C2C3CC4C2C(O)=C(C(=O)OCC)C2C1C3C42` (stereo not drawn), the GI50 in the assay on DU-145, in the assay on MDA-MB-435 and in the assay with T47D was > 100 µM (inactive) in each case.
`CCC1=C(C[C@H]2NCCc3cc(OC)c(OC)cc32)C[C@H]2c3cc(OC)c(OC)cc3CCN2C1`: the GI50 in the assay with HOP-18 is 0.667 µM (active); in the assay on KM-20L2, 0.0288 µM (active); with LXFL 529, 0.0316 µM (active); in the assay on M19-MEL, 0.0251 µM (active); with RXF 631, 0.0412 µM (active).
With `CN1CCCC2[C@@H]3CCC4c5nonc5CC[C@]4(C)C3CC[C@@]21C` (stereo partly drawn), the GI50 with HOP-18 was > 100 µM (inactive); with KM-20L2, 23.3 µM (inactive); in the assay on LXFL 529, 84.7 µM (inactive); in the assay on M19-MEL, 63.8 µM (inactive); in the assay on XF498, 24.4 µM (inactive).
In the case of `Oc1ccc2ccccc2c1Cc1c(O)ccc2ccccc12`, the GI50 in the assay with DU-145 was 17.9 µM (inactive); in the assay on MDA-MB-435, 11 µM (inactive); in the assay with T47D, 20.3 µM (inactive).
For `CC(C)=CC1CC(=[N+]=[N-])C(=O)C1(C)C` (stereo not drawn), the GI50 in the assay with HOP-18, with KM-20L2, with LXFL 529, in the assay with M19-MEL and with XF498 was > 100 µM (inactive) in each case.
For `NCCN/C(=N\c1ccccc1)Nc1ccccc1`, the GI50 in the assay on DU-145 was > 100 µM (inactive); in the assay with MDA-MB-435, > 100 µM (inactive); with T47D it was > 10 µM (inactive).
Consider `[O-]c1c2c(nn1-c1ccc(F)cc1)c1ccccc1c[n+]2Cc1ccccc1`, for which the GI50 was 11.6 µM (inactive) with KM-20L2, 0.448 µM (active) in the assay with LXFL 529 and 19.2 µM (inactive) in the assay on XF498.
On to `Cn1c(=O)c2ccccc2c2nc3ccccc3nc21`, for which the GI50 with KM-20L2, in the assay on LXFL 529 and in the assay on M19-MEL was > 100 µM (inactive) each time.
For the molecule `O=C1c2ccccc2-c2nnc(-c3ccc(Cl)cc3)cc21`, the GI50 in the assay on DU-145, in the assay on MDA-MB-435 and in the assay with T47D was > 10 µM (inactive) in each case.
With `C=C1CC(Cn2cc(C)c(=O)[nH]c2=O)(c2ccc(-c3ccccc3)cc2)OC1=O` (stereo not drawn), the values for the GI50 with DU-145, in the assay on MDA-MB-435 and with T47D were 2.35 µM (inactive), 1.8 µM (inactive) and 1.99 µM (inactive), respectively.
